Test results taken from patent US4921958A, “Piperazinylalkylcarboxylic acid adamantylamides” (American Home Products Corporation, priority 1989, dated 1990).
Read-outs that look alike come from different tables or passages of the source.

How the values were obtained:
[1] = in words, Barone et al., 1986; cited from earlier work
[2] = biological target: T1, 5-HT1A serotonin receptor subtype (Rattus norvegicus, UniProt P19327); test: Displacement of 3H-8-OH DPAT from the 5-HT1A serotonin receptor subtype (Hall et al.); type: binding; settings: for inhibition at 1 µM: 1 μM test compound, read-out: % Inhibition at 1 μM (Affinity for 5-HT1A Receptor Sites); for Ki: calculated from appropriate IC50 values, 3H-8-OH DPAT, read-out: Ki (Affinity for 5-HT1A Receptor Sites)
T1 construct: from tissue
T1 sequence (P19327 1-422): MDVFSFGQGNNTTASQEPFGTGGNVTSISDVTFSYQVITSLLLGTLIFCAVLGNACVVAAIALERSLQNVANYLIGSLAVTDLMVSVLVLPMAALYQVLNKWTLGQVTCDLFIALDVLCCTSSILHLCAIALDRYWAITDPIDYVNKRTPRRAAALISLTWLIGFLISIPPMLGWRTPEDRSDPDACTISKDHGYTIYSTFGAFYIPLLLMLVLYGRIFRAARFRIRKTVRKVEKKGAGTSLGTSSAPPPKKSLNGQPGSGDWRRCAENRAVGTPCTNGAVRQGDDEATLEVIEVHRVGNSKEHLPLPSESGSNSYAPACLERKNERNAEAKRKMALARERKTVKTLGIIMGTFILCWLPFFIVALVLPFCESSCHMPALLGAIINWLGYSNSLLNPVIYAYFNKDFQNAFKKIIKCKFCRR
Description: The serotoninergic properties of the compounds of this invention were established by the procedure of Hall et al., J. Neurochem.

[3] = biological target: T2, limbic D2 (dopamine) receptor (Rattus norvegicus, UniProt P61169); test: Inhibition of 3H-spiroperidol binding to limbic brain tissue (D2 receptor affinity; modified Fields et al. and Yamamura et al.); settings: 1 μM test compound
T2 construct: from tissue; host or cells: limbic brain tissue
Description: The compounds of this invention are antidepressant, anxiolytic agents useful in the treatment of depression and/or anxiety as a singular, primary mental problem as well as secondary, attending problems such as sexual dysfunction. […] The D2 receptor affinity of the compounds of this invention was determined by a modification of the test procedure of Fields et al., Brain Res. 136, 578 (1977) and Yamamura et. al., eds., Neurotransmitter Receptor Binding, Raven Press, N.Y. (1978) as discussed in U.S. No. 4,636,563. The percentage reduction of ^3 H-spiroperidol binding at 1 μM concentration of test compound is reported, infra.

[4] = 3H-spiroperidol, read-out: % Inhibition at 1 μM (Affinity for D2 Receptor Sites)

T2 sequence (P61169 whole entry): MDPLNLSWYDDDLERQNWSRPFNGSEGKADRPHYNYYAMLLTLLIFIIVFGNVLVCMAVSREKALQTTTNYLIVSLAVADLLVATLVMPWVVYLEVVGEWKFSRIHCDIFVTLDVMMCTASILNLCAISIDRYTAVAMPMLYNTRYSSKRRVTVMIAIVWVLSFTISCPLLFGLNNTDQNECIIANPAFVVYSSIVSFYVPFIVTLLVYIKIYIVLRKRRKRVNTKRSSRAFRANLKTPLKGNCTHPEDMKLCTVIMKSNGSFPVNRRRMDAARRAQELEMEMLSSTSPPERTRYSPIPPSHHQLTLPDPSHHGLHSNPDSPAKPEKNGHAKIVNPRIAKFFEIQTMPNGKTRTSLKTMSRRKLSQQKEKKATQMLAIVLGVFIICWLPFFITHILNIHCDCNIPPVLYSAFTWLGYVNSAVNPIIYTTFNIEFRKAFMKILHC

Row | Structure (SMILES) | clinical efficacy as anxiolytic-antidepressant agents [1] | inhibition at 0.1 µM ([2]; 100 nM test compound, displacement of 3H-8-OH DPAT, read-out: % Inhibition at 100 nM (Affinity for 5-HT1A Receptor Sites)) | inhibition at 1 µM ([2]; displacement of 3H-8-OH DPAT) | Ki [2] | inhibition at 1 µM [3, 4] | inhibition at 1 µM ([3]; limbic brain tissue, read-out: inhibition of 3H-spiroperidol binding to limbic brain tissue)
1 | Cc1nc2sccn2c(=O)c1CCN1CCC(=C(c2ccc(F)cc2)c2ccc(F)cc2)CC1 [Ritanserin] | demonstrate clinical efficacy | – | – | – | – | –
2 | COc1ccccc1N1CCN(CCC(=O)NC23CC4CC(CC(C4)C2)C3)CC1 [Example 2, 4-(2-methoxyphenyl)-N-tricyclo[3.3.1.1(3,7)]dec-1-yl-1-piperazinepropanamide] | – | 86% | 100% | 0.009 µM | 74% | 74%
3 | O=C(CCN1CCN(c2ncccn2)CC1)NC12CC3CC(CC(C3)C1)C2 [Example 1, 4-(2-pyrimidyl)-N-tricyclo[3.3.1.1(3.7)]dec-1-yl-1-piperazinepropanamide] | – | – | 79% | 0.13 µM | 14% | –
4 | COc1ccccc1N1CCN(CC(C(=O)NC23CC4CC(CC(C4)C2)C3)c2ccccc2)CC1 (stereo not shown) [Example 3, N-(1-Tricyclo[3.3.1.1(3,7)]decyl)-3-[1-[4-(2-methoxyphenyl)piperazinyl]]-2-phenylpropanamide] | – | – | – | 0.083 µM | – | –
